Test results taken from patent US8772283B2, “Imidazo-oxazine compound or salt thereof” (Taiho Pharmaceutical Co., Ltd., priority 2011, dated 2014).

Legend:
human AKT2 = human AKT2 (Homo sapiens (Human), UniProt P31751); assay: AKT2 kinase activity inhibition (TR-FRET, biotinylated Crosstide substrate); type: biochemical; settings: preincubation 120 min at 25° C.; ATP 150 μM; Crosstide 500 nM
In short: (§1)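 Middle-T-tagged human AKT1 or AKT2, Sf9-expressed, affinity-purified and PDK1-activated, was preincubated 120 min at 25 °C with compound in 15 mM Tris-HCl pH 7.5, 0.01% Tween-20, 2 mM DTT. Kinase reaction then ran 60 min with 500 nM biotin-Crosstide, 10 mM MgCl2 and 150 μM ATP before EDTA stop. IC50 came from the Eu/APC TR-FRET 665/620 nm ratio.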

human AKT1 = human AKT1 (Homo sapiens (Human), UniProt P31749); assay: AKT1 kinase activity inhibition (TR-FRET, biotinylated Crosstide substrate); type: biochemical; settings: preincubation 120 min at 25° C.; ATP 150 μM; Crosstide 500 nM
In short: as §1

[1] = tested on: AKT Ser473 phosphorylation; assay: Phosphorylated AKT (Ser473) inhibitory activity in cultured cell A2780 (Meso Scale Discovery assay); type: cell-based; settings: A2780 cells, 3 hours treatment; average±standard deviation of three independent runs
Procedure: (§2) To evaluate the inhibitory activity of the above compounds against AKT activity, AKT Ser 473 phosphorylation and phosphorylation of S6 ribosomal protein (S6RP) (a downstream factor of Akt signal) at Ser240/Ser244, which serve as indices for the activation status of AKT, were measured in extracts of cultured cells which had been treated with the above compounds. For the measurement, assays (manufactured by Meso Scale Discovery) utilizing electrochemiluminescence based on the ELISA principle were used for both AKT Ser473 and S6RP Ser240/Ser244.
(§3) In 10% FBS-containing RPMI1640 medium (Invitrogen), ovarian cancer-derived A2780 cells in the logarithmic growth phase were seeded at 4.5×10^4 cells/150 μL/well into polylysine coated 96-well flat-bottom plates, and cultured for one day in an incubator at 5% CO2, 37° C., and 100% humidity.
(§4) Each compound of the present invention was supplied as a stock solution prepared at a concentration of 10 mM in DMSO. Using this solution, a dilution series was prepared in DMSO solvent at 200-fold of the final concentrations (10, 3, 1, 0.3, 0.1, 0.03, 0.01, 0.003 μM). The day after the cells were seeded, the compound dilution series at a 200-fold concentration was diluted 50-fold in medium for cell culture. To each well of the aforementioned A2780 cell culture plates, 50 μL of the diluted compound dilution series was added. The plates were then placed back in the incubator, and the culture was continued for 3 hours at 5% CO2, 37° C., and 100% humidity.
(§5) Meso Scale Discovery's 96-Well Multi-Spot Phospho-AKT (Ser473) Assay (K151CAA-3) and Phospho (Ser240/244)/Total S6RP Assay (K11139D-2) were used. In advance, a necessary amount of the supplied cell extract buffer was dispensed, and protease inhibitor cocktail and protein phosphatase inhibitor cocktail were added thereto, and kept cold on ice. The culture plates of the cells cultured with the compounds for 3 hours were taken out and the medium was removed. 100 μL of the cell extract buffer kept cold was added per well, followed by extraction by shaking at 300 r.p.m. for 1 hour using a plate shaker while maintaining a temperature of 4° C. Using the obtained extracts at 40 μL/well for the Phospho-AKT (Ser473) Assay and at 15 μL/well for the Phospho(Ser240/244)/Total S6RP Assay, reactions were conducted at 4° C. overnight with shaking at 300 r.p.m. according to the document attached to the kits. The next day, after the wells were washed three times with the supplied wash buffer, 50 μL/well of SULFO-TAG™ sandwich antibody solution was added, and reactions were carried out at room temperature for 1 hour. The wells were washed with the wash buffer three times, and 150 μL of the supplied Read Buffer T was added to each well. The amounts of phosphorylation of AKT and S6RP were measured by a SECTOR Imager 6000 plate reader (manufactured by Meso Scale Discovery) within 30 minutes of the Read Buffer T addition.
(§6) The extraction buffer-only background was subtracted from all of the measurement values, and AKT and S6RP phosphorylation signals in the control cell extract treated with only DMSO were defined as 100%. The compound concentrations and the levels of phosphorylated AKT and S6PR (expressed as a percentage relative to the control) in each concentration were plotted, and IC50 concentration (nM) that achieves 50% inhibition of the control was determined.

[2] = tested on: S6 ribosomal protein (S6RP) Ser240/Ser244 phosphorylation; assay: Phosphorylated S6RP (Ser240/Ser244) inhibitory activity in cultured cell A2780 (Meso Scale Discovery assay); type: cell-based; settings: A2780 cells, 3 hours treatment; average±standard deviation of three independent runs
Procedure: as §2, §3, §4, §5, §6

Chain of human AKT2 (P31751 whole entry): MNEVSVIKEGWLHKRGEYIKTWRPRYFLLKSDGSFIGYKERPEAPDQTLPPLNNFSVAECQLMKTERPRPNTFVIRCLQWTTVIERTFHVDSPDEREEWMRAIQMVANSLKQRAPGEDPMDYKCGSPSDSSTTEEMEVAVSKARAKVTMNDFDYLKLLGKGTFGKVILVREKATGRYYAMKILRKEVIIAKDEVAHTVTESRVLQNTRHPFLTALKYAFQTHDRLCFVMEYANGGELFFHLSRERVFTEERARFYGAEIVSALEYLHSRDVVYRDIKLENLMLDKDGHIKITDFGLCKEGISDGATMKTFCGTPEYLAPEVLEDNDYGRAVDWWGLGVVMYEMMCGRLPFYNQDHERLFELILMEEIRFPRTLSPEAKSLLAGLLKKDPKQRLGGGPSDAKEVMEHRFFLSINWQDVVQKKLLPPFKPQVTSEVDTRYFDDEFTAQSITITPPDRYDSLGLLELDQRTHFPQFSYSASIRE
Chain of human AKT1 (P31749 whole entry): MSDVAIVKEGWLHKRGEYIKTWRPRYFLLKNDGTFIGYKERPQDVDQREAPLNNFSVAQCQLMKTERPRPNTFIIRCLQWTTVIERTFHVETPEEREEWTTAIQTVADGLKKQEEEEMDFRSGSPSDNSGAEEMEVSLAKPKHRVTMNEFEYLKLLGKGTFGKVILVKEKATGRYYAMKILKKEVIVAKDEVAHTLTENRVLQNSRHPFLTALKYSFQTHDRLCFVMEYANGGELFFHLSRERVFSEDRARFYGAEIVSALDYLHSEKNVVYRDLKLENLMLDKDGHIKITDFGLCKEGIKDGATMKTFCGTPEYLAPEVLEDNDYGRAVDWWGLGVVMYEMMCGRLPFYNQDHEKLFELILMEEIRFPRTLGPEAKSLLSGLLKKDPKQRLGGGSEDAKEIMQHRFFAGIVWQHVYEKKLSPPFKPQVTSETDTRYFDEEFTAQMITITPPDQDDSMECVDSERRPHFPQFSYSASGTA

Row | SMILES | IC50 (human AKT2) [nM] | IC50 (human AKT1) [nM] | IC50 [1] [nM] | IC50 [2] [nM]
1 | C[C@]1(O)C[C@@](N)(c2ccc(-c3nc4n(c3-c3ccccc3)COc3ccc(C#N)cc3-4)cc2)C1 [Example 46, 2-(4-(trans-1-amino-3-hydroxy-3-methylcyclobutyl)phenyl)-3-phenyl-5H-benzo[e]imidazo[1,2-c][1,3]oxazine-9-carbonitrile] | 0.97 | 4.4 | 32 ± 5 | 53 ± 6
2 | NC1(c2ccc(-c3nc4n(c3-c3ccccc3)COc3nccnc3-4)cc2)CC(O)(C2CC2)C1 (stereo not drawn) [Example 41, trans-3-amino-1-cyclopropyl-3-(4-(3-phenyl-5H-imidazo[1,2-c]pyrazino[2,3-e][1,3]oxazin-2-yl)phenyl)cyclobutanol] | 3.3 | 5.4 | 70 ± 16 | 100 ± 34
3 | N[C@]1(c2ccc(-c3nc4n(c3-c3ccccc3)COc3ccncc3-4)cc2)C[C@](O)(C2CC2)C1 [Example 31, trans-3-amino-1-cyclopropyl-3-(4-(3-phenyl-5H-imidazo[1,2-c]pyrido[3,4-e][1,3]oxazin-2-yl)phenyl)cyclobutanol] | 0.78 | 4.2 | 30 ± 5 | 51 ± 7
4 | COc1ccc2c(c1)-c1nc(-c3ccc([C@]4(N)C[C@@](O)(C5CC5)C4)cc3)c(-c3ccccc3)n1CO2 [Example 17, trans-3-amino-1-cyclopropyl-3-(4-(9-methoxy-3-phenyl-5H-benzo[e]imidazo[1,2-c][1,3]oxazin-2-yl)phenyl)cyclobutanol] | 5.1 | 1.8 | 33 ± 6 | 37 ± 7
